{"source": "patent US11945862B2", "about": "“Compositions and methods for antibody production” (ImmunoGen, Inc., priority 2017, dated 2024)", "key": {"humanized N901 antibody": {"tested_on": "humanized N901 antibody", "test": "Antibody disulfide reduction by CHO cell lysate (RIPA buffer), thiol/antibody by Ellman's assay", "type": "biochemical", "details": "for decrease in antibody-disulfide reduction: versus control without agent", "procedure": "For all of the examples described below, cell damage was simulated by multiple freeze-thaw cycles of cells, by addition of RIPA buffer (50 mM Tris-HCl, pH 7.4, 1% NP-40, 0.5% sodium deoxycholate, 0.1% sodium dodecylsulfate), or by using microfluidizer. This damaged cell supernatant or lysate was then incubated with a buffered solution containing antibody with or without the anti-reduction agent being tested, following which the extent of the antibody-disulfide reduction was measured using Ellman's assay for thiol (P. W. Riddles, R. L. Blakeley, and B. Zerner, Methods Enzymol., 91, 49-60, 1983) or by non-reducing SDS protein LabChip analysis. The total thiol level present in the mixture of damaged cell supernatant/lysate was measured initially.\nThe effect of 1,2-naphthoquinone-4-sulfonic acid (NQS) on antibody-disulfide reduction was studied by incubating 1,2-naphthoquinone-4-sulfonic acid at several concentrations with antibody and damaged CHO lysate. The damaged CHO cell lysate was generated by the addition of 0.5 ml RIPA buffer (50 mM Tris-HCl, pH 7.4, 1% NP-40, 0.5% sodium deoxycholate, 0.1% sodium dodecylsulfate) to 100 million CHO cells. The thiol concentration in CHO cell lysate was measured by Ellman's assay as 2.1 mM.\nEach sample contained pre-mixed 0.5 ml RIPA buffer (50 mM Tris-HCl, pH 7.4, 1% NP-40, 0.5% sodium deoxycholate, 0.1% sodium dodecylsulfate) with 1 mg humanized N901 antibody, with or without 1,2-naphthoquinone-4-sulfonic acid (25 micromolar, or 50 micromolar, or 100 micromolar), which was added to a cell pellet of 100 million CHO cells, and the resuspended cells were incubated at ambient temperature for 30 minutes, following which the cell debris were pelleted by centrifugation (16,000 g, 5 min). The supernatant from each sample was added to 50 microliter immobilized-Protein A beads (RepliGen) and rotated at ambient temperature for 3 hours, after which the supernatant was removed and the beads washed with PBS.\nThe thiol content of the immobilized antibody was determined by the addition of 0.6 ml of PBS containing 0.5 mM DTNB (Ellman's reagent) to the beads, rotation for about 10 minutes, centrifugation, and absorbance measurement of supernatant at 412 nm.\nThe effect of anthraquinone-2-sulfonic acid (AQS) on antibody-disulfide reduction was studied during co-incubation of anthraquinone-2-sulfonic acid with antibody and damaged CHO lysate. Each sample contained pre-mixed 1 ml RIPA buffer (50 mM Tris-HCl, pH 7.4, 1% NP-40, 0.5% sodium deoxycholate, 0.1% sodium dodecylsulfate) with 1 mg humanized N901 antibody, with or without 0.2 mM anthraquinone-2-sulfonic acid (AQS), which was added to a cell pellet of 100 million CHO cells, and the resuspended cells were incubated at ambient temperature for 30 minutes, following which the cell debris were pelleted by centrifugation (16,000 g, 5 min). The thiol concentration in CHO cell lysate was 1 mM (Ellman's assay).\nThe supernatant from each sample was added to 50 microliter immobilized-Protein A beads (RepliGen) and rotated at ambient temperature for 3 hours, after which the supernatant was removed and the beads washed with PBS. The thiol content of the immobilized antibody was determined by the addition of 0.6 ml of PBS containing 0.5 mM DTNB (Ellman's reagent) to the beads, rotation for about 10 minutes, centrifugation, and absorbance measurement of supernatant at 412 nm.\nIn another experiment, 1 mg huN901 antibody was incubated with CHO lysate, with or without 0.4 mM anthraquinone-2-sulfonic acid for 4 hours. The mixture was then analyzed for thiol/antibody as above.\nThe thiol concentration in CHO cell lysate was 1 mM (Ellman's assay).\nThe supernatant from each sample was added to 50 microliter immobilized-Protein A beads (RepliGen) and rotated at ambient temperature for 3 hours, after which the supernatant was removed and the beads washed with PBS. […]"}, "[1]": {"tested_on": "Humanized FOLR1 IgG1 antibody", "test": "Antibody disulfide reduction by CHO cell lysate (RIPA buffer), thiol per antibody by Ellman's assay", "type": "biochemical", "description": "Lysates of CHO cells (˜60 million cells lysed in 0.6 ml RIPA buffer and clarified by centrifugation) were added to each of these mixtures. The pH values of all samples were adjusted to 7. […] The samples were incubated with 200 microliter immobilized-Protein A beads (RepliGen) and rotated at ambient temperature for 3 hours, after which the supernatant was removed and the beads washed with PBS. The thiol content of the immobilized antibody was determined by the addition of 0.2 ml of PBS containing 0.5 mM DTNB (Ellman's reagent) to the beads, rotation for about 10 minutes, centrifugation, and absorbance measurement of the supernatant at 412 nm.\nThe pH values of all samples were adjusted to 7. The samples were incubated with 200 microliter immobilized-Protein A beads (RepliGen) and rotated at ambient temperature for 3 hours, after which the supernatant was removed and the beads washed with PBS. The thiol content of the immobilized antibody was determined by the addition of 0.2 ml of PBS containing 0.5 mM DTNB (Ellman's reagent) to the beads, rotation for about 10 minutes, centrifugation, and absorbance measurement of the supernatant at 412 nm.\nTo test the effect of L-cystine bis(t-butyl ester) (CDBE) on protecting antibody disulfide bonds from reduction by CHO lysate, humanized FOLR1 IgG1 antibody (2 mg) was incubated with CHO lysate in RIPA buffer (0.6 ml lysate of 60 million CHO cells in 0.6 ml RIPA buffer, clarified by centrifugation) without or with 0.5 or 1 mM CDBE. The samples were rotated at ambient temperature with 200 microliter immobilized-Protein A beads (RepliGen) for 2 hours, after which the supernatant was removed and the beads washed with PBS. The thiol content of the immobilized antibody was determined by the addition of 0.2 ml of PBS containing 0.5 mM DTNB (Ellman's reagent) to the beads, centrifugation, and absorbance measurement of the supernatant at 412 nm.\nThe samples were rotated at ambient temperature with 200 microliter immobilized-Protein A beads (RepliGen) for 2 hours, after which the supernatant was removed and the beads washed with PBS. The thiol content of the immobilized antibody was determined by the addition of 0.2 ml of PBS containing 0.5 mM DTNB (Ellman's reagent) to the beads, centrifugation, and absorbance measurement of the supernatant at 412 nm."}, "[2]": {"test": "Reactivity of AQS with a model thiol, Ellman's assay of thiol groups", "details": "1 mM AQS with 1 mM cysteine ethyl ester, PBS, ambient temperature", "procedure": "In a separate experiment, the reactivity of anthraquinone-2-sulfonic acid (AQS) with a model thiol (L-cysteine ethyl ester) at ambient temperature was investigated by incubating 1 mM AQS with 1 mM cysteine ethyl ester at ambient temperature in PBS, using Ellman's assay of thiol groups to measure the extent of reaction. At time points of 1 hour, 2 hours, 3 hours, and 4 hours, the percent decrease in thiol values for the 1 mM AQS with 1 mM cysteine ethyl ester mixture versus thiol in a 1 mM cysteine ethyl ester (No AQS) control were 2%, 8%, 12%, and 20%, respectively."}, "[3]": {"tested_on": "Calu3 human lung cancer cells", "test": "Cell viability, microscopic observation and Cell Titer Glo ATP assay", "type": "cell-based", "details": "1 day", "procedure": "The effect of incubating cells with anthraquinone-2-sulfonic acid (AQS) was tested using Calu3 human lung cancer cells. Effects on cell viability were assayed by microscopic observation of cells and by ATP-based viability assay using Cell Titer Glo reagent (Promega)."}, "humanized FOLR1 IgG1": {"tested_on": "humanized FOLR1 IgG1", "test": "Antibody fragmentation in HCCF treated with 20% (v/v) microfluidized CHO cells, non-reducing SDS-Protein Lab Chip", "type": "biochemical", "details": "1 mM of each additive, 6 h; control 78% fragmentation", "description": "The samples were quenched with 5 mM N-ethylmaleimide (NEM), purified using immobilized Protein A, and subjected to non-reducing SDS-Protein Lab Chip electrophoretic analysis."}, "CHO cells": {"tested_on": "CHO cells", "test": "Viability of CHO cells after 1 day treatment", "details": "antibody-producing CHO cells, about two weeks continuous culture, control 63.8%"}, "humanized IgG4": {"tested_on": "humanized IgG4", "test": "IgG4 disulfide reduction by CHO cell lysate, DTNB thiol assay", "type": "biochemical", "details": "1 mM agent, 30% v/v CHO cell lysate, 4 hours, pH 7; control 7.7", "procedure": "All samples were adjusted to pH 7 and incubated with 200 μl protein A beads for 4 hours while rotating at room temperature. After the incubation the supernatant was removed and beads washed three times with 10 ml PBS. To analyze the thiol content of the protein A-bound IgG4 antibody, the beads were incubated with a 0.5 mM DTNB solution for 5 min and the absorbance of the supernatant measured at 412 nm."}, "Humanized IgG2 antibody": {"tested_on": "Humanized IgG2 antibody", "test": "IgG2 disulfide reduction by CHO cell lysate, DTNB thiol assay", "type": "biochemical", "details": "1 mM agent, 40% v/v CHO cell lysate, 5 hours, pH 7; control 0.84", "procedure": "Humanized IgG2 antibody (1 mg/ml; final concentration) was incubated with 40% v/v CHO cell lysate (˜40 million cells lysed with 0.4 ml RIPA buffer and debris removed by centrifugation) in a total volume of 1 ml. The control sample was adjusted to pH 7 and rotated at RT for 5 hours with 100 μl protein A beads. […] After the incubation time of 5 hours, the supernatant was removed and the beads were washed three times with 10 ml PBS before the thiol amount of the immobilized antibody was analyzed by adding 0.5 mM DTNB and measuring the absorbance at 412 nm."}, "physchem": {"test": "physchem", "details": "thermodynamic from solid", "excerpt": "The pH was adjusted to pH 7.1 and the sample was rotated overnight at ambient temperature followed by centrifugation to remove undissolved L-cystine dihydrochloride."}, "[4]": {"test": "Redox potential of antibody solution with media additive over a range of DTT concentrations", "type": "physicochemical", "details": "1 mM additive, DTT 0.34 μM to 170 μM, 37° C., 1 h"}, "M9346A antibody [5]": {"tested_on": "M9346A antibody", "type": "biochemical"}, "M9346A antibody [6]": {"tested_on": "M9346A antibody", "type": "biochemical", "details": "1 mM additive", "procedure": "Antibody reduction was induced in a biological assay by adding cell lysate to purified monoclonal antibody. […]. Increasing amounts of CHO cell lysate were added to mimic different percentages of cell lysis, ranging from […]. Fresh NADPH was added to a concentration of 400 μM. The mixtures were incubated in a water bath at 37° C. for 1 h. Free thiols were alkylated by addition of 10% (v/v) of 50 mM N-ethyl-maleimide (NEM) solution. Samples were analyzed by non-reduced sodium dodecyl sulfate denaturing capillary electrophoresis (NR-CE-SDS).\nTo test the capacity for protection further, the stringency of the assay was increased. […]."}}, "note": "Structures can show the parent of a compound that is named as a salt. Where two headings read alike, the source gives them in different places."}
{"smiles": "O=C1c2ccccc2C(=O)c2cc(S(=O)(=O)O)ccc21", "note": "[AQS, anthraquinone-2-sulfonic acid]", "values": [{"measurement": "thiol/antibody", "setting": "humanized N901 antibody; 0.2 mM agent, 3 hours, lysate thiol 1 mM, control 4.86", "result": 2.46, "unit": "thiol/antibody"}, {"measurement": "decrease in antibody-disulfide reduction", "setting": "humanized N901 antibody; 0.2 mM agent, 3 hours", "result": 49, "unit": "%"}, {"measurement": "thiol/antibody", "setting": "humanized N901 antibody; 0.4 mM agent alone, 4 hours, control 4.34", "result": 1.65, "unit": "thiol/antibody"}, {"measurement": "decrease in antibody-disulfide reduction", "setting": "humanized N901 antibody; 0.4 mM agent, 4 hours", "result": 62, "unit": "%"}, {"measurement": "thiol per antibody", "setting": "[1]; 2 mM agent, 3 hours, pH 7, lysate of ~40 million cells, control 0.95", "result": "about 0.18 thiol per antibody"}, {"measurement": "percent decrease in thiol versus No AQS control", "setting": "[2]; 1 hour", "result": 2, "unit": "%"}, {"measurement": "percent decrease in thiol versus No AQS control", "setting": "[2]; 2 hours", "result": 8, "unit": "%"}, {"measurement": "percent decrease in thiol versus No AQS control", "setting": "[2]; 3 hours", "result": 12, "unit": "%"}, {"measurement": "percent decrease in thiol versus No AQS control", "setting": "[2]; 4 hours", "result": 20, "unit": "%"}, {"measurement": "Cell Titer Glo luminescence relative to control cells", "setting": "[3]; 0.25 mM", "result": 100, "unit": "%"}, {"measurement": "Cell Titer Glo luminescence relative to control cells", "setting": "[3]; 0.5 mM", "result": 85, "unit": "%"}, {"measurement": "cytotoxic effects by microscopic observation", "setting": "[3]; 0.25 and 0.5 mM", "result": "no visible cytotoxic effects"}, {"measurement": "fragmentation compared with no additive control", "setting": "humanized FOLR1 IgG1", "result": "much lower fragmentations"}, {"measurement": "viability count using trypan blue", "setting": "CHO cells; 0.25 mM", "result": 66.2, "unit": "%"}, {"measurement": "viability count using trypan blue", "setting": "CHO cells; 0.5 mM", "result": 64.8, "unit": "%"}, {"measurement": "viability count using trypan blue", "setting": "CHO cells; 0.75 mM", "result": 61.7, "unit": "%"}]}
{"smiles": "CC(C)(C)OC(=O)[C@@H](N)CSSC[C@H](N)C(=O)OC(C)(C)C", "note": "[CDBE, L-cystine bis(t-butyl ester)]", "values": [{"measurement": "decrease in disulfide reduction compared to the control", "setting": "[1]; 0.25 mM agent, another experiment", "result": "about 78%"}, {"measurement": "decrease in disulfide reduction compared to the control", "setting": "[1]; 0.5 mM agent, 2 hours", "result": "about 93%"}, {"measurement": "thiol per antibody", "setting": "[1]; 0.5 mM agent, 2 hours, control 2.26", "result": "about 0.16 thiol per antibody"}, {"measurement": "decrease in disulfide reduction compared to the control", "setting": "[1]; 1 mM agent, 2 hours", "result": "~96", "unit": "%"}, {"measurement": "thiol per antibody", "setting": "[1]; 1 mM agent, 2 hours, control 2.26", "result": "~0.10", "unit": "thiol per antibody"}, {"measurement": "decrease in disulfide reduction compared to the control", "setting": "[1]; 2 mM agent, another experiment", "result": "~98", "unit": "%"}, {"measurement": "thiol groups per antibody", "setting": "humanized IgG4", "result": "no reduced disulfides were detected"}, {"measurement": "reduced thiols per antibody", "setting": "Humanized IgG2 antibody", "result": "near-zero reduction"}]}
{"smiles": "CC(C)(C)OC(=O)[C@@H](N)CSSC[C@H](N)C(=O)OC(C)(C)C", "note": "[L-cystine bis(t-butyl ester) dihydrochloride]", "values": [{"measurement": "solubility", "setting": "physchem; water", "result": "≥ 500", "unit": "mM"}]}
{"smiles": "Cl.Cl.N[C@@H](CSSC[C@H](N)C(=O)O)C(=O)O", "note": "[L-cystine dihydrochloride, reference compound]", "values": [{"measurement": "thiol per antibody", "setting": "[1]; L-cystine derived from saturated L-cystine solution, 3 hours, pH 7, control 1.96", "result": "about 0.74 thiol per antibody"}, {"measurement": "solubility", "setting": "physchem; pH 7.1, aqueous buffer", "result": "< 5", "unit": "mM"}]}
{"smiles": "O=S(=O)([O-])[O-].[Cu+2]", "note": "[copper sulfate]", "values": [{"measurement": "modulation of redox potential", "setting": "[4]", "result": "constant redox potential across all DTT concentrations"}, {"measurement": "intact antibody", "setting": "M9346A antibody [5]", "result": 100, "unit": "%"}, {"measurement": "protection at increased assay stringency", "setting": "M9346A antibody [6]; conditions where control without additive was 100% fragmented", "result": "protective of disulfide reduction"}]}
{"smiles": "N[C@@H](CS)C(=O)O", "note": "[cysteine, reference compound]", "values": [{"measurement": "modulation of redox potential", "setting": "[4]", "result": "constant redox potential at low concentrations of DTT, followed by a slow decrease at higher DTT concentrations"}, {"measurement": "intact antibody", "setting": "M9346A antibody [6]; lysate mimicking 120% cell lysis, 400 μM NADPH, 37° C., 1 h, control 40%", "result": "~70", "unit": "%"}]}
{"smiles": "[O]=[Cr](=[O])([O-])[O][Cr](=[O])(=[O])[O-]", "note": "[dichromate, reference compound]", "values": [{"measurement": "modulation of redox potential", "setting": "[4]", "result": "constant redox potential across all DTT concentrations"}, {"measurement": "intact antibody", "setting": "M9346A antibody [5]; 1 mM additive, 100 μM DTT, 37° C., 1 h, control 80%", "result": 100, "unit": "%"}]}
